This note sets out measurements from patent US20260217677A1, “ORGANIC COMPOUNDS AS NLRP3 INHIBITORS” (KODIAK SCIENCES, INC., priority 2023, published 2026).

For the first assay, the system named is IL-1β release in U937 cells after NLRP3 activation. Description: IL-1β release inhibition in U937 cells (MSD V-Plex). The settings on record: Homo sapiens, U-937, read-out: IL-1β IC50, Table 3; PMA-differentiated U937 cells, 1 μg/mL LPS 3 h, compound 30 min, 10 mM nigericin 1 h.
`Cc1cc(N[C@@H]2CCCN(CC(=O)N3CC4(CC(O)C4)C3)C2)nnc1-c1ccc(C(F)(F)F)cc1O` [Compound 16, (R)-2-(3-((6-(2-Hydroxy-4-(trifluoromethyl)phenyl)-5-methylpyridazin-3-yl)amino)piperidin-1-yl)-1-(6-hydroxy-2-azaspiro[3.3]heptan-2-yl)ethan-1-one]: the IC50 is 5 to 50 nM. The same measure, in the same setting: in the case of `O=C(CN1CCC[C@@H](Nc2nnc(-c3ccc(C(F)(F)F)cc3O)c3c2COC3)C1)N1CC[C@H](O)C1` [Compound 26, 2-((R)-3-((4-(2-Hydroxy-4-(trifluoromethyl)phenyl)-5,7-dihydrofuro[3,4-d]pyridazin-1-yl)amino)piperidin-1-yl)-1-((S)-3-hydroxypyrrolidin-1-yl)ethan-1-one] it was 5 to 50 nM; in that of `Cc1cc(N[C@@H]2CCCN(CCC(=O)N3CCC(O)CC3)C2)nnc1-c1ccc(C(F)(F)F)cc1O` [Example 46, 3-[(3R)-3-({6-[2-Hydroxy-4-(trifluoromethyl)phenyl]-5-methylpyridazin-3-yl}amino)piperidin-1-yl]-1-(4-hydroxypiperidin-1-yl) propan-1-one], less than 5 nM. For `Cc1c(N[C@@H]2CCCN(C[C@H]3C[C@@H](O)C3)C2)nnc(-c2ccc3sccc3c2O)c1C` [Example 73, 5-(6-(((R)-1-(((1s,3S)-3-Hydroxycyclobutyl)methyl)piperidin-3-yl)amino)-4,5-dimethylpyridazin-3-yl)benzo[b]thiophen-4-ol], the concentration for half-maximal inhibition (IC50) is less than 5 nM.

Take `Oc1cc(C(F)(F)F)ccc1-c1nnc(N[C@@H]2CCCN(CCN3CCC(O)CC3)C2)c2c1CCC2` [Compound 19, 1-{2-[(3R)-3-({4-[2-Hydroxy-4-(trifluoromethyl)phenyl]-5H,6H,7H-cyclopenta[d]pyridazin-1-yl}amino)piperidin-1-yl]ethyl}piperidin-4-ol]: the half-inhibitory concentration (IC50) lay in the range of 50 to 500 nM.

Still in this assay, the particulars now being: Homo sapiens, U-937, read-out: IL-1β IC50, Table 4; PMA-differentiated U937 cells, 1 μg/mL LPS 3 h, compound 30 min, 10 mM nigericin 1 h.
Turning to `Cc1cc(N[C@@H]2CCCN(C3CCNCC3)C2)nnc1-c1ccc(C(F)(F)F)cc1O` [Example 85, (R)-2-(6-([1,4′-Bipiperidin]-3-ylamino)-4-methylpyridazin-3-yl)-5-(trifluoromethyl)phenol], the IC50 lay in the range of 5 to 50 nM. Take `Cc1cc(N[C@@H]2CCCN(C3CNC3)C2)nnc1-c1ccc(C(F)(F)F)cc1O` [Example 84, (R)-2-(6-((1-(Azetidin-3-yl)piperidin-3-yl)amino)-4-methylpyridazin-3-yl)-5-(trifluoromethyl)phenol]: the IC50 lay within 5 to 50 nM. Take `Cc1cc(N[C@@H]2CCCN(CCN3CCNCC3)C2)nnc1-c1ccc(C(F)(F)F)cc1O` [Example 104, (R)-2-(4-Methyl-6-((1-(2-(piperazin-1-yl)ethyl)piperidin-3-yl)amino)pyridazin-3-yl)-5-(trifluoromethyl)phenol]: the IC50 was 5 to 50 nM.

With `Cc1cc(N[C@@H]2CCCN(CC(=O)N3CCC4(CCNCC4)CC3)C2)nnc1-c1ccc(C(F)(F)F)cc1O` [Example 93, (R)-2-(3-((6-(2-Hydroxy-4-(trifluoromethyl)phenyl)-5-methylpyridazin-3-yl)amino)piperidin-1-yl)-1-(3,9-diazaspiro[5.5]undecan-3-yl)ethan-1-one], the 50% inhibitory concentration (IC50) lay in the range of 50 to 500 nM. For `Cc1cc(N[C@@H]2CCCN(CC(=O)N(C)CCN)C2)nnc1-c1ccc(C(F)(F)F)cc1O` [Example 79, (R)—N-(2-Aminoethyl)-2-(3-((6-(2-hydroxy-4-(trifluoromethyl)phenyl)-5-methylpyridazin-3-yl)amino)piperidin-1-yl)-N-methylacetamide], the 50% inhibitory concentration (IC50) lay within 50 to 500 nM.

The same assay, now with this note: read-out: IL-1β IC50; Table 3; PMA-differentiated U937 cells, 1 μg/mL LPS 3 h, compound 30 min, 10 mM nigericin 1 h.
Take `Cc1cc(N[C@@H]2CCCN(CC(=O)N(C)[C@H]3CC[C@H](O)CC3)C2)nnc1-c1ccc(C(F)(F)F)cc1O` [Compound 18, 2-((R)-3-((6-(2-Hydroxy-4-(trifluoromethyl)phenyl)-5-methylpyridazin-3-yl)amino)piperidin-1-yl)-N-((1r,4R)-4-hydroxycyclohexyl)-N-methylacetamide]: the half-inhibitory concentration (IC50) is 5 to 50 nM.

A word on the IC50: it is the midpoint of a concentration-inhibition curve.
